Experimental data reported in patent US10611750B2, “Tetrahydroquinoline compositions as bet bromodomain inhibitors” (FORMA Therapeutics, Inc., priority 2013, dated 2020).
Where two headings read alike, the source gives them in different places.

What was measured:
[1] = target: T1, BRD4 Bromodomain 2 (BRD4 BD2) (Homo sapiens, UniProt O60885); experiment: AlphaScreen binding assay, BRD4 BD2; conditions: His-tagged BRD4 BD2 100 nM, biotinylated H4 (1-21) K5/8/12/16 tetra-acetylated peptide 100 nM, compounds listed under IC50 range headings
T1 construct: 333-460 were cloned, expressed, and purified to homogeneity
In short: (§1)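 An AlphaScreen competition format was used with His-BRD4 BD1 or BD2 and biotin-H4 K5/8/12/16-acetyl peptide, each at matched final levels of 50 nM (BD1) or 100 nM (BD2). Incubation in HEPES/NaCl buffer with 0.1% BSA and 0.01% Triton X-100 ran ≥1 h before IC50 determination.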

[2] = target: T2, BRD4 Bromodomain 1 (BRD4 BD1) (Homo sapiens, UniProt O60885); experiment: AlphaScreen binding assay, BRD4 BD1; conditions: His-tagged BRD4 BD1 50 nM, biotinylated H4 (1-21) K5/8/12/16 tetra-acetylated peptide 50 nM, compounds listed under IC50 range headings
T2 construct: 44-168 and BRD4 BD2
In short: as §1

[3] = tested on: acute myelocytic leukemia (AML) cell line MV4-11; experiment: Oncology cell growth assay (3-day proliferation, CellTiter-Glo); assay type: cell-based; conditions: Homo sapiens, MV4-11 cells, 3000 cells/well, compounds listed under IC50 range headings, read-out: MV411 IC50 (gIC50, inhibition of proliferation)
In short: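 Luminescence from CellTiter-Glo served as the growth read-out after MV4-11 cells (3000/well) were cultured with compound for 72 hours. Final concentrations spanned 10 to 0.0045 μM in 3-fold steps. gIC50 values were derived by four-parameter logistic fitting relative to DMSO and cell-free controls.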

Structure (SMILES)	IC50 [1]	IC50 [2]	IC50 ([3]; 72 hours)	IC50 ([3]; MV4-11, 72 h)
CC(=O)N1c2ccc(-c3cnn(C4CC4)c3)c(O[C@H](F)C(N)=O)c2CC[C@@H]1C (single isomer, unassigned) [I-63]	50 to 500 nM	1000 to 10000 nM	> 1000 nM	
CC(=O)N1c2ccc(-c3cnn(C4CC4)c3)c(OC(F)C(N)=O)c2CC[C@@H]1C (single isomer, unassigned) [I-64]	≥ 500 nM	≥ 10000 nM	> 1000 nM	
CC=Cn1c(Oc2c(-c3cnn(C4CC4)c3)ccc3c2CC[C@H](C)N3C(C)=O)nc2ccccc21 (single isomer, unassigned) [I-352]	50 to 500 nM	1000 to 10000 nM		500 to 1000 nM
CCCOc1c(-c2cnn(CCO)c2)ccc2c1CC[C@H](C)N2C(C)=O [I-1, (S)-1-(6-(1-(2-hydroxyethyl)-1H-pyrazol-4-yl)-2-methyl-5-propoxy-3,4-dihydroquinolin-1 (2H)-yl)ethanone]	50 to 500 nM	100 to 1000 nM	< 500 nM	
CC(=O)N1c2ccc(-c3cnn(C4CC4)c3)c(OCC(=O)N3CCC3)c2CC[C@@H]1C [I-7, (S)-2-(1-acetyl-6-(1-cyclopropyl-1H-pyrazol-4-yl)-2-methyl-1,2,3,4-tetrahydroquinolin-5-yloxy)-1-(azetidin-1-yl)ethanone]	50 to 500 nM	100 to 1000 nM		< 500 nM
CC(=O)N1c2ccc(-c3cnn(C4CC4)c3)c(OCC(=O)N3CCCCC3)c2CC[C@@H]1C [I-8, (S)-2-(1-acetyl-6-(1-cyclopropyl-1H-pyrazol-4-yl)-2-methyl-1,2,3,4-tetrahydroquinolin-5-yloxy)-1-(piperidin-1-yl)ethanone]	50 to 500 nM	100 to 1000 nM		< 500 nM
COC(=O)N1c2ccc(-c3cnn(C4CC4)c3)c(OCCF)c2CC[C@@H]1C [I-11, (S)-methyl 6-(1-cyclopropyl-1H-pyrazol-4-yl)-5-(2-fluoroethoxy)-2-methyl-3,4-dihydroquinoline-1(2H)-carboxylate]	< 50 nM	1000 to 10000 nM		> 1000 nM
COC(=O)N1c2ccc(-c3cnn(C4CC4)c3)c(OCCC(F)(F)F)c2CC[C@@H]1C [I-13, (S)-methyl 6-(1-cyclopropyl-1H-pyrazol-4-yl)-2-methyl-5-(3,3,3-trifluoropropoxy)-3,4-dihydroquinoline-1(2H)-carboxylate]	50 to 500 nM	1000 to 10000 nM		500 to 1000 nM
COC(=O)N1c2ccc(-c3cnn(C4CC4)c3)c(OC(F)(F)C(N)=O)c2CC[C@@H]1C [I-14, (S)-methyl 5-(2-amino-1,1-difluoro-2-oxoethoxy)-6-(1-cyclopropyl-1H-pyrazol-4-yl)-2-methyl-3,4-dihydroquinoline-1(2H)-carboxylate]	50 to 500 nM	1000 to 10000 nM		> 1000 nM
COC(=O)N1c2ccc(-c3cnn(C4CC4)c3)c(OCC(C)(C)CO)c2CC[C@@H]1C [I-17, (S)-methyl 6-(1-cyclopropyl-1H-pyrazol-4-yl)-5-(3-hydroxy-2,2-dimethylpropoxy)-2-methyl-3,4-dihydroquinoline-1(2H)-carboxylate]	50 to 500 nM	100 to 1000 nM		500 to 1000 nM
COC(=O)N1c2ccc(-c3cnn(C4CC4)c3)c(O[C@H](F)C(N)=O)c2CC[C@@H]1C [I-19, (S)-methyl 5-((R)-2-amino-1-fluoro-2-oxoethoxy)-6-(1-cyclopropyl-1H-pyrazol-4-yl)-2-methyl-3,4-dihydroquinoline-1(2H)-carboxylate]	50 to 500 nM	1000 to 10000 nM		> 1000 nM
CC(=O)N1c2ccc(-c3cnn(C4CC4)c3)c(OCc3ncc(C)o3)c2CC[C@@H]1C [I-478]	50 to 500 nM	1000 to 10000 nM		
CC(=O)N1c2ccc(-c3cnn(C4CC4)c3)c(OCc3nc4ccccc4o3)c2CC[C@@H]1C [I-481]	≥ 500 nM	≥ 10000 nM		
CCCOc1c(-c2ccc(S(C)(=O)=O)cc2)ccc2c1CC[C@H](C)N2C(C)=O [I-482]	≥ 500 nM	1000 to 10000 nM		
CC(=O)N1c2ccc(-c3ccc(S(C)(=O)=O)cc3)c(OCC(=O)N(C)C)c2CC[C@@H]1C [I-483]	≥ 500 nM	1000 to 10000 nM		
CCCOc1c(-c2ccc(S(=O)(=O)CC)cc2)ccc2c1CC[C@H](C)N2C(C)=O [I-484]	50 to 500 nM	1000 to 10000 nM		
CCS(=O)(=O)c1ccc(-c2ccc3c(c2OCC(=O)N(C)C)CC[C@H](C)N3C(C)=O)cc1 [I-485]	≥ 500 nM	1000 to 10000 nM		
CCCOc1c(-c2cccc(C(=O)N3CCOCC3)c2)ccc2c1CC[C@H](C)N2C(C)=O [I-488]	50 to 500 nM	1000 to 10000 nM		
CC(=O)N1c2ccc(-c3cccc(C(=O)N4CCOCC4)c3)c(OCC(=O)N(C)C)c2CC[C@@H]1C [I-489]	≥ 500 nM	≥ 10000 nM		

Structure (SMILES)	IC50 [1]	IC50 [2]	IC50 ([3]; 72 hours)	IC50 ([3]; MV4-11, 72 h)
CCCOc1c(-c2cccc(NS(C)(=O)=O)c2)ccc2c1CC[C@H](C)N2C(C)=O [I-490]	50 to 500 nM	1000 to 10000 nM		
CCCOc1c(-c2cccc(S(C)(=O)=O)c2)ccc2c1CC[C@H](C)N2C(C)=O [I-492]	50 to 500 nM	1000 to 10000 nM		
CC(=O)N1c2ccc(-c3cccc(S(C)(=O)=O)c3)c(OCC(=O)N(C)C)c2CC[C@@H]1C [I-493]	≥ 500 nM	1000 to 10000 nM		
CCCOc1c(-c2ccc(NS(C)(=O)=O)cc2)ccc2c1CC[C@H](C)N2C(C)=O [I-494]	50 to 500 nM	1000 to 10000 nM		
CC(=O)N1c2ccc(-c3ccc(NS(C)(=O)=O)cc3)c(OCC(=O)N(C)C)c2CC[C@@H]1C [I-495]	≥ 500 nM	1000 to 10000 nM		
CCCOc1c(-c2ccc(C(=O)N3CCOCC3)cc2)ccc2c1CC[C@H](C)N2C(C)=O [I-496]	50 to 500 nM	1000 to 10000 nM		
CC(=O)N1c2ccc(-c3ccc(C(=O)N4CCOCC4)cc3)c(OCC(=O)N(C)C)c2CC[C@@H]1C [I-497]	50 to 500 nM	1000 to 10000 nM		
CCCOc1c(-c2ccc(N3CCCS3(=O)=O)cc2)ccc2c1CC[C@H](C)N2C(C)=O [I-498]	50 to 500 nM	1000 to 10000 nM		
CC(=O)N1c2ccc(-c3ccc(N4CCCS4(=O)=O)cc3)c(OCC(=O)N(C)C)c2CC[C@@H]1C [I-499]	50 to 500 nM	1000 to 10000 nM		
CCCOc1c(-c2ccc3c(c2)CCN3S(C)(=O)=O)ccc2c1CC[C@H](C)N2C(C)=O [I-500]	50 to 500 nM	1000 to 10000 nM		
CCCOc1c(-c2ccc(N(C)S(C)(=O)=O)cc2)ccc2c1CC[C@H](C)N2C(C)=O [I-502]	50 to 500 nM	1000 to 10000 nM		
CC(=O)N1c2ccc(-c3ccc(N(C)S(C)(=O)=O)cc3)c(OCC(=O)N(C)C)c2CC[C@@H]1C [I-503]	50 to 500 nM	1000 to 10000 nM		
CC(=O)N1c2ccc(-c3cnn(CCO)c3)c(Oc3nc(C)cc(C)n3)c2CC[C@@H]1C [I-544]	50 to 500 nM	1000 to 10000 nM		
CC(=O)N1c2ccc(-c3cnn(C4COC4)c3)c(OC[C@H]3CCNC3)c2CC[C@@H]1C [I-601]	50 to 500 nM	1000 to 10000 nM		
CC(=O)N1c2ccc(-c3cnn(CC(C)(C)O)c3)c(OC[C@H]3CCNC3)c2CC[C@@H]1C [I-604]	≥ 500 nM	1000 to 10000 nM		
CCCOc1cccc2c1CC[C@H](C)N2C(C)=O [I-605]	≥ 500 nM	≥ 10000 nM		
CC(=O)N1c2cccc(OCC(=O)N(C)C)c2CC[C@@H]1C [I-606]	≥ 500 nM	≥ 10000 nM		
CC(=O)N1c2cccc(OCC3CCCC3)c2CC[C@@H]1C [I-607]	≥ 500 nM	≥ 10000 nM		
